The subject of one assay is RAS. Put plainly: Ras-GTP immunoprecipitation (RAF1-RBD pulldown). The class given is cell-based. From the text:
Active GTP bound Ras was pulled down and detected using the Active Ras Pull-Down and Detection Kit (Thermo Scientific, #16117) according to manufacturer's instruction. At least 10×10^6 cells were used in pull-down and lysates were normalized to ensure equal protein input across DMSO and selinexor-treated samples within each cell line.

The subject of assay [1] is AKT. Put plainly: Western immunoblot of AKT phosphorylation in AML cell lines. The format is cell-based. The procedure: (§1) Protein lysates were prepared with 1×CST Lysis Buffer (CST #9803) supplemented with 1× cOmplete protease inhibitor cocktail (Roche #04693124001) and 1× PhosSTOP phosphatase inhibitor (Roche #04906837001). Crude lysates were rotated for 15 minutes with lysis buffer, cleared by centrifugation at 13,000 rpm for 10 minutes at 4° C. and normalized by total protein content using standard Bradford analysis. Membranes were probed with primary antibodies β-actin (13E5) (CST #4970 diluted 1:5000 in 5% BSA), p-AKT T308 (244F9) (CST #4056 diluted 1:1000 in 5% BSA), p-AKT S473 (D9E) (CST #4060 diluted 1:1000 in 5% BSA), T-AKT (C67E7) (CST #4691 diluted 1:3000 in 5% BSA), p-GSK3B S9 (D85E12) (CST #5558 diluted 1:1000 in 5% BSA), p-BAD S136 (D25H8) (CST #4366 diluted 1:1000 in 5% BSA), CRM1 (C-1) (sc #74454 diluted 1:100 in 5% BSA), cleaved-PARP (D64E10) (CST #5625 diluted 1:1000 in 5% BSA), cleaved-Caspase3 D175 (CST #9661 diluted 1:500 in 5% BSA), p110-g (D55D5) (CST #5405 diluted 1:1000 in 5% BSA), p110α (C73F8) (CST #4249 diluted 1:1000 in 5% BSA), p110β (C33D4) (CST #3011 diluted 1:1000 in 5% BSA), p1108 (D1Q7R) (CST #34050 diluted 1:1000 in 5% BSA) or p101 (D32A5) (CST #5569 diluted 1:1000 in 5% BSA) overnight (16 hours). Following incubation with HRP-conjugated secondary antibody, blots were developed with SuperSignal West Pico PLUS Chemiluminescent Substrate (ThermoFisher) or ECL Western Blotting Substrate (ThermoFisher).
To validate selinexor's ability to activate PI3K/AKT signaling, each of five AML cell lines was treated with selinexor for 24 hours before performing western blot analysis. […] Additional AKT-dependent phosphorylation marks on PRAS40, FOXO3a, and TSC2 were also assessed in OCI-AML2 cells and found to be increased. This phosphorylation pattern was indicative of activated AKT signaling. To characterize the kinetics of selinexor-induced AKT activation, AML cells were treated with selinexor and collected samples at interval time points up to 48 hours. Across multiple cell lines, activation of AKT signaling was observed starting at 8-24 hours (FIG. 2B). […] The delays between treatment and AKT activation, observed both in vivo and in vitro, were not inconsistent with the presumption that selinexor primarily acts through transcriptional mechanisms. Finally, to assess the exclusivity of these findings for selinexor, cells were treated with a panel of eight additional anti-leukemic drugs for 24 hours.

Another assay relates to AML cell lines. Briefly: Short-term drug sensitivity assay (GI50), selinexor plus background drug. The class given is cell-based. The conditions noted are these: fixed-concentration background drug; for sensitization to selinexor (relative selinexor GI50), PI3K isoform-specific inhibitor background: panel of AML cell lines; for sensitization to selinexor (relative selinexor GI50), AKT or MEK/ERK inhibitor background: panel of eight AML cell lines, 72 hours. As to the method:
Short-term cell viability assays were conducted. Briefly, AML cells were seeded at a density of 7,500 cells/well, treated with vehicle (DMSO) or a 10-fold serial dilution of selinexor (individually or combination with fixed-concentration background drug) and assessed for viability after 72-hours using Cell Titer Glo (Promega). The relative cell viability was determined by normalizing the raw luminescence values for each treatment condition to either the DMSO-treated well (selinexor individually) or the background drug only well (selinexor combinations). GI50 values approximate the concentration of selinexor required to inhibit growth of cells by 50%. Values were interpolated from dose-response curves plotted using GraphPad/Prism 8 software.

The test system of assay [2] is OCI-AML2 cells. Briefly: Reverse phase protein array (RPPA) analysis. The format is cell-based. As to the method:
OCI-AML2 cells were treated with DMSO or selinexor for 3, 24 and 48-hours at which point 3×10^6 cells were pelleted and frozen at -80° C. RPPA analysis was performed as previously described. All samples were conducted in biological triplicate and normalized to DMSO control at each respective timepoint. Next, it was sought to identify the signaling nodes activated by selinexor treatment. To do this, a reverse phase protein array (RPPA) was used to analyze AML cells treated with DMSO or selinexor for 48 hours, using a dose of selinexor sufficient to provide an on-target effect but not high enough to impose a meaningful selective pressure. The RPPA platform, which provides quantitative measurements of 160 epitopes and phospho-epitopes representing cellular growth, proliferation, and signaling pathways, identified many drug-induced effects, several of which supported previously described mechanisms of selinexor activity. […] (FIG. 1C). […] In addition to corroborating selinexor's established effects, the RPPA data was able to identify selinexor-induced downregulations of phospho-S6 at Ser235/236 and Ser240/244, phospho-elF4G at […], and phospho-4E-BP1 at […], which collectively pointed to suppression of mTORC1 signaling (FIG. 1C). This idea has been raised in multiple myeloma and was further supported here by the reciprocal upregulation of DEPTOR, a negative regulator of mTOR.

Assay [3] is classed as in vivo. The conditions noted are these: selinexor 15 mg/kg in mice.
Procedure: Animals transplanted with these AML cells were treated with the combination of selinexor (15 mg/kg, oral gavage) and ipatasertib (65 mg/kg, oral gavage) or either drug alone every other day for ten days.
The subject of assay [4] is AKT. Briefly: AKT activation in vivo, syngeneic MLL-AF9-driven model of AML. The conditions noted are these: MLL-AF9 cells from treated mice.
The subject of a further assay is extracellular ATP. Briefly: Extracellular ATP release in presence of ARL67156. Conditions: 36 hours, with ectonucleotidase inhibitor ARL67156, normalized for cell quantity. The format is cell-based. The procedure: To assess the role of P2RY2 in selinexor-induced AKT activation, the ability of P2RY2 to activate AKT in the AML cell lines was first tested by culturing cells in the presence of exogenous ATP or UTP. Cells cultured with exogenous ATP activated AKT signaling while cells cultured with exogenous UTP only minimally activated AKT, if at all, prompting the possibility that selinexor may activate AKT signaling through induced release of extracellular ATP. This was tested by treating cells with selinexor versus vehicle in the presence of the ectonucleotidase inhibitor ARL67156 and quantifying the amount of extracellular ATP released after 36 hours.

Another assay deals with MAPK signaling. Put plainly: Western blot of MAPK signaling in AML cell lines. The format is cell-based. The conditions noted are these: multiple AML cell lines. The procedure:
as §1, with “Following incubation with HRP-conjugated secondary antibody, blots were developed with SuperSignal West Pico PLUS Chemiluminescent Substrate (ThermoFisher) or ECL Western Blotting Substrate (ThermoFisher).” left out
(In general: Immunoblotting shows a protein as a band on a membrane.)

The test system of assay [5] is OCI-AML2 cells. Briefly: Pooled CRISPR selinexor sensitizer screen, selinexor dose (approx. GI50). The format is cell-based. Conditions: Homo sapiens, 336 h, two-week screen period, approximate, read-out: GI50 concentration. The procedure: Virus production, titering and transduction was performed as previously described. In short, viral titer (Infectious Units (IFU)/mL) was found by transducing OCI-AML2 cells with a 1:3 dilution series of library virus, selecting cells with puromycin for 2 days and determining multiplicity of infection (MOI) from % of cells infected. Viral titer is equal to (#cells seeded*MOI*Virus dilution factor)/(Volume of virus added to each well). […] For the selinexor sensitizer screen, selinexor was dosed at 100 nM, a concentration that yielded sufficient selective pressure without excessive cell death (approximately the GI50 concentration) over the two-week screen period. […] Genomic DNA was extracted using the DNeasy Blood & Tissue Kit (Qiagen) from 25×10^6 cell samples taken prior to dividing cells into treatment conditions (time zero) and after completion of the two-week screen. Amplification of the sgRNA barcodes and indexing of each sample was performed via 2-step PCR as previously described.

The subject of the next assay is P2RY2. Briefly: qRT-PCR of P2RY2 expression. The format is cell-based. The procedure: RNA was isolated from whole cells with the RNEasy Mini kit (Qiagen). cDNA was reverse transcribed from total RNA samples using iScript cDNA Synthesis Kit with 1 μg of RNA template. qRT-PCR was carried out using iQ SYBR Green Supermix and a CFX384 Touch Real-Time PCR Detection System, according to manufacturer instructions. Fold expression was determined by normalizing cycle threshold (Cq) values to ACTB reference gene and normalizing samples to control sample, in accordance with the ΔΔCq method.
On the technique in general: Real-time PCR tracks product formation cycle by cycle.

With `Cc1ccc2c(c1)C=Cc1cc(C)ccc1C2c1cn(Cc2ccc(C(=O)Nc3nn[nH]n3)o2)c(=O)[nH]c1=S` [AR-C118925XX], the “effect on selinexor-induced GTP-RAS” value with RAS (OCI-AML2, AR-C added to selinexor) was “able to reverse the increased GTP-RAS”. Further, the “p-AKT T308 in FLT3-mutant expressing cells” value in the assay on AKT [1] (OCI-AML2 cells expressing D835Y-mutant FLT3) is reported as “reduced but did not completely ablate the elevated p-AKT T308 signal”. The “p-AKT T308, baseline” value with AKT [1] (OCI-AML2 cells expressing GFP, western blot) is given as “suppressed p-AKT T308”.

Consider `Cc1nc(NC(=O)N2CCC[C@H]2C(N)=O)sc1-c1ccnc(C(C)(C)C(F)(F)F)c1` [BYL-719], for which the “sensitization to selinexor (relative selinexor GI50), PI3K isoform-specific inhibitor background” value in the assay with AML cell lines is recorded as “unable to sensitize any of the cell lines to selinexor”.

Consider `CCn1c(-c2nonc2N)nc2c(C#CC(C)(C)O)ncc(OC[C@H]3CCCNC3)c21` [GSK690693], for which the “sensitization to selinexor (relative selinexor GI50), AKT or MEK/ERK inhibitor background” value with AML cell lines is reported as “capable of sensitizing all eight of the AML cell lines tested to selinexor”.

Take `C[C@H](NC(=O)c1c(N)nn2cccnc12)c1cc2cccc(C#Cc3cnn(C)c3)c2c(=O)n1-c1ccccc1` [IPI-549]: the “sensitization to selinexor (relative selinexor GI50), PI3K isoform-specific inhibitor background” value in the assay with AML cell lines is recorded as “capable of sensitizing each AML cell line to selinexor”.

As to `NC1(c2ccc(-c3nc4ccn5c(=O)[nH]nc5c4cc3-c3ccccc3)cc2)CCC1` [MK-2206], the “sensitization to selinexor (relative selinexor GI50), AKT or MEK/ERK inhibitor background” value with AML cell lines is given as “capable of sensitizing all eight of the AML cell lines tested to selinexor”.

`Cc1cc(C(C)Nc2ccccc2)c2nc(N3CCOCC3)cc(=O)n2c1` (stereo not shown) [TGX-221]: the “sensitization to selinexor (relative selinexor GI50), PI3K isoform-specific inhibitor background” value in the assay with AML cell lines is given as “unable to sensitize any of the cell lines to selinexor”.

In the case of `NC(=O)/C(=C/n1cnc(-c2cc(C(F)(F)F)cc(C(F)(F)F)c2)n1)c1cncnc1` [eltanexor], the “AKT phosphorylation at Thr308 and Ser473 (second-generation CRM1 inhibitor)” value with AKT [1] (western blot of eltanexor-treated samples) was “produced consistent phosphorylation of AKT at Thr308 and Ser473”.

As to `CC(C)NC[C@@H](C(=O)N1CCN(c2ncnc3c2[C@H](C)C[C@H]3O)CC1)c1ccc(Cl)cc1` [ipatasertib], in the assay with AML cell lines, the “sensitization to selinexor (relative selinexor GI50), AKT or MEK/ERK inhibitor background” value is on record as “capable of sensitizing all eight of the AML cell lines tested to selinexor”.

On to `O=C(/C=C\n1cnc(-c2cc(C(F)(F)F)cc(C(F)(F)F)c2)n1)NNc1cnccn1` [selinexor], for which, in the assay on OCI-AML2 cells [2] (OCI-AML2 cells, 48 hours selinexor vs DMSO), the “RPPA expression of phospho-AKT (Thr308 and Ser473)” value is reported as “two of the strongest upregulations identified by RPPA were reserved for AKT”. In addition, in the assay with OCI-AML2 cells [2] (selinexor- versus vehicle-treated cells), the “RPPA phospho-ERK at Thr202/Tyr204” value is on record as “an increase in phopho-ERK at Thr202/Tyr204”. Besides, the on-target response result in assay [3] is listed as “induction of p53”. Further, the “start of AKT activation after treatment” value in the assay with AKT [4] was in the range of 6 to 8 h. Moreover, the “extracellular ATP released” value in the assay with extracellular ATP was “no increase in extracellular ATP”. Moreover, the MAPK signaling result with MAPK signaling is “activated MAPK signaling in a P2RY2 dependent manner”. Moreover, the GI50 in the assay on OCI-AML2 cells [5] is around 100 nM. Besides, the P2RY2 expression result with P2RY2 (each of five AML cell lines, vs DMSO control) is on record as “increased P2RY2 expression”. In the assay on P2RY2 (qRT-PCR, up to 48 hours), the “time course of P2RY2 transcriptional upregulation” value was “transcriptional upregulation of P2RY2 starting at 12 and increasing through 48 hours”. For the same compound, in the assay with RAS (five AML cell lines, selinexor- versus vehicle-treated), the GTP-RAS result was “increased GTP-RAS”. The “AKT phosphorylation at Thr308 and Ser473” value in the assay with AKT [1] (five AML cell lines, selinexor 24 hours, western blot) was “increased AKT phosphorylation at both Thr308 and Ser473”. For the same compound, the “start of activation of AKT signaling” value with AKT [1] (multiple AML cell lines, time points up to 48 hours) was 8 to 24 h.

The values above are taken from patent US20240216376A1, “COMBINATION THERAPIES FOR THE TREATMENT OF CANCER” (Duke University, priority 2021, published 2024).
